Row | melting point [°C] | SMILES
1 | 233 to 235 | Cc1cc2c(cc1Cl)NC(=O)CC(c1ccnc(-c3ccncc3)c1)=N2 [Example 293, 4-[2,4′]Bipyridinyl-4-yl-8-chloro-7-methyl-1,3-dihydro-benzo[b][1,4]diazepin-2-one]
2 | 248 to 250 | Cc1cc(-c2cccc(C3=Nc4cc(C)c(C(F)(F)F)cc4NC(=O)C3)c2)nc(N)n1 [Example 315, 4-[3-(2-Amino-6-methyl-pyrimidin-4-yl)-phenyl]-7-methyl-8-trifluoromethyl-1,3-dihydro-benzo[b][1,4]diazepin-2-one]
3 | 196 | Cc1cc2c(cc1Cl)NC(=O)CC(c1cccc(-c3ccnc(C(C)C)c3)c1)=N2 [Example 270, 8-Chloro-4-[3-(2-isopropyl-pyridin-4-yl)-phenyl]-7-methyl-1,3-dihydro-benzo[b][1,4]diazepin-2-one]
4 | 229 | Cc1cc2c(cc1Cl)NC(=O)CC(c1cccc(-c3cccnc3)c1)=N2 [Example 26, 8-Chloro-7-methyl-4-(3-pyridin-3-yl-phenyl)-1,3-dihydro-benzo[b][1,4]diazepin-2-one]
5 | 233 to 237 | Cc1ccc(-c2cccc(C3=Nc4cc(N(C)C)c(C(F)(F)F)cc4NC(=O)C3)c2)cn1 [Example 10, 7-Dimethylamino-4-[3-(6-methyl-pyridin-3-yl)-phenyl]-8-trifluoromethyl-1,3-dihydro-benzo[b][1,4]diazepin-2-one]
6 | 190 | Cc1cc2c(cc1Cl)NC(=O)CC(c1cccc(-c3ccc(C(C)C)nc3)c1)=N2 [Example 179, 8-Chloro-4-[3-(6-isopropyl-pyridin-3-yl)-phenyl]-7-methyl-1,3-dihydro-benzo[b][1,4]diazepin-2-one]
7 | 197 | O=C1CC(c2ccnc(-c3cccnc3)c2)=Nc2cc(OCC(F)(F)F)c(C(F)(F)F)cc2N1 [Example 394, 4-[2,3′]Bipyridinyl-4-yl-7-(2,2,2-trifluoro-ethoxy)-8-trifluoromethyl-1,3-dihydro-benzo[b][1,4]diazepin-2-one]
8 | 232 | Cc1cc(-c2cccc(C3=Nc4cc(N(C)C(C)C)c(C(F)(F)F)cc4NC(=O)C3)c2)cc(C)n1 [Example 412, 4-[3-(2,6-Dimethyl-pyridin-4-yl)-phenyl]-7-(isopropyl-methyl-amino)-8-trifluoromethyl-1,3-dihydro-benzo[b][1,4]diazepin-2-one]
9 | 213 to 214 | O=C1CC(c2cccc(-c3ccc(C4CC4)nc3)c2)=Nc2cc(OCC(F)(F)F)c(C(F)(F)F)cc2N1 [Example 166, 4-[3-(6-Cyclopropyl-pyridin-3-yl)-phenyl]-7-(2,2,2-trifluoro-ethoxy)-8-trifluoromethyl-1,3-dihydro-benzo[b][1,4]diazepin-2-one]
10 | 197 to 199 | Cc1cc(-c2cccc(C3=Nc4cc(C)c(Cl)cc4NC(=O)C3)c2)nc(NCCO)n1 [Example 323, 8-Chloro-4-{3-[2-(2-hydroxy-ethylamino)-6-methyl-pyrimidin-4-yl]-phenyl}-7-methyl-1,3-dihydro-benzo[b][1,4]diazepin-2-one]
11 | 145 to 160 | CCc1cc(C)c(-c2cccc(C3=Nc4cc(OCC(F)(F)F)c(C(F)(F)F)cc4NC(=O)C3)c2)cn1 [Example 256, 4-[3-(6-Ethyl-4-methyl-pyridin-3-yl)-phenyl]-7-(2,2,2-trifluoro-ethoxy)-8-trifluoromethyl-1,3-dihydro-benzo[b][1,4]diazepin-2-one]
12 | 162 | CCCc1cc2c(cc1C(F)(F)F)NC(=O)CC(c1cccc(-c3cccnc3)c1)=N2 [Example 230, 7-Propyl-4-(3-pyridin-3-yl-phenyl)-8-trifluoromethyl-1,3-dihydro-benzo[b][1,4]diazepin-2-one]
13 | 196 to 198 | CN(c1cc2c(cc1C(F)(F)F)NC(=O)CC(c1cccc(-c3cccnc3)c1)=N2)C1CC1 [Example 62, 7-(Cyclopropyl-methyl-amino)-4-(3-pyridin-3-yl-phenyl)-8-trifluoromethyl-1,3-dihydro-benzo[b][1,4]diazepin-2-one]

Source: patent publication US6949542B2, “Dihydro-benzo[b][1,4]diazepin-2-one derivatives” (Hoffman-La Roche Inc., priority 2002, dated 2005)
